ChEMBL document CHEMBL1201862, “PubChem BioAssay data set” (2004)
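How tested: cells in 96-well plates exposed to compound for 48 hours at five concentrations. The concentration for 50% growth inhibition is given as GI50.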 Calls of active or inactive are those of the source. Rule as the data show it: active = GI50 up to about 1.1 µM and inactive = higher.

Key:
Experiment in all cases: inhibition of tumour cell growth, NCI panel, 48 h
SF-539 = test system: SF-539
MCF7 = test system: MCF7
SK-MEL-5 = test system: SK-MEL-5
PC-3 = test system: PC-3
OVCAR-4 = test system: OVCAR-4
SW-620 = test system: SW-620
CCRF-CEM = test system: CCRF-CEM
HT-29 = test system: HT-29
NCI-H226 = test system: NCI-H226
SF-268 = test system: SF-268
MDA-MB-435 = test system: MDA-MB-435
HCT-116 = test system: HCT-116
HL-60 = test system: HL-60
EKVX = test system: EKVX
MDA-N = test system: MDA-N
NCI/ADR-RES = test system: NCI/ADR-RES
OVCAR-8 = test system: OVCAR-8
NCI-H460 = test system: NCI-H460
OVCAR-5 = test system: OVCAR-5
A549 = test system: A549
NCI-H23 = test system: NCI-H23
RPMI-8226 = test system: RPMI-8226
DU-145 = test system: DU-145
MDA-MB-231 = test system: MDA-MB-231
SN12C = test system: SN12C
KM12 = test system: KM12
BT-549 = test system: BT-549
HOP-62 = test system: HOP-62
T47D = test system: T47D
U-251 = test system: U-251
RXF 393 = test system: RXF 393
M14 = test system: M14
UO-31 = test system: UO-31
Hs-578T = test system: Hs-578T
Malme-3M = test system: Malme-3M
UACC-62 = test system: UACC-62
IGROV-1 = test system: IGROV-1
SF-295 = test system: SF-295
HCT-15 = test system: HCT-15
OVCAR-3 = test system: OVCAR-3
SK-MEL-28 = test system: SK-MEL-28
CAKI-1 = test system: CAKI-1
SNB-75 = test system: SNB-75
COLO 205 = test system: COLO 205
SR = test system: SR
SNB-19 = test system: SNB-19
UACC-257 = test system: UACC-257
K562 = test system: K562
786-0 = test system: 786-0
A498 = test system: A498
SK-OV-3 = test system: SK-OV-3
HOP-92 = test system: HOP-92
SK-MEL-2 = test system: SK-MEL-2
LOX IMVI = test system: LOX IMVI
MOLT-4 = test system: MOLT-4
ACHN = test system: ACHN
TK-10 = test system: TK-10
HCC 2998 = test system: HCC 2998

Measured: GI50

O=C1CC(=O)n2cnc3cccc(c32)N1
> 100 µM: HCT-15
inactive: SF-539 > 100 µM | MCF7 > 100 µM | SK-MEL-5 > 100 µM | PC-3 > 100 µM | OVCAR-4 > 100 µM | SW-620 > 100 µM | CCRF-CEM > 100 µM | HT-29 > 100 µM | NCI-H226 > 100 µM | SF-268 > 100 µM | MDA-MB-435 > 100 µM | HCT-116 > 100 µM | HL-60 > 100 µM | EKVX > 100 µM | MDA-N > 100 µM | NCI/ADR-RES > 100 µM | OVCAR-8 > 100 µM | NCI-H460 > 100 µM | OVCAR-5 > 100 µM | A549 > 100 µM | NCI-H23 > 100 µM | RPMI-8226 > 100 µM | DU-145 > 100 µM | MDA-MB-231 > 100 µM | SN12C > 100 µM | KM12 > 100 µM | BT-549 > 100 µM | HOP-62 > 100 µM | T47D > 100 µM | U-251 > 100 µM | RXF 393 > 100 µM | M14 > 100 µM | UO-31 > 100 µM | Hs-578T > 100 µM | Malme-3M > 100 µM | UACC-62 > 100 µM | IGROV-1 > 100 µM | SF-295 > 100 µM | OVCAR-3 > 100 µM | SK-MEL-28 > 100 µM | CAKI-1 > 100 µM | SNB-75 > 100 µM | COLO 205 > 100 µM | SR > 100 µM | SNB-19 > 100 µM | UACC-257 > 100 µM | K562 > 100 µM | 786-0 > 100 µM | A498 > 100 µM | SK-OV-3 > 100 µM | HOP-92 > 100 µM | SK-MEL-2 > 100 µM

Cn1c(-c2cccs2)cc(-c2cccs2)c1-c1ccsc1
32.9 µM: HCT-15
inactive: SF-539 > 100 µM | MCF7 2.03 µM | SK-MEL-5 27.2 µM | PC-3 > 100 µM | LOX IMVI > 100 µM | OVCAR-4 > 100 µM | SW-620 > 100 µM | CCRF-CEM > 100 µM | HT-29 > 100 µM | NCI-H226 > 100 µM | SF-268 > 100 µM | MOLT-4 > 100 µM | MDA-MB-435 > 100 µM | HCT-116 23.3 µM | HL-60 > 100 µM | EKVX > 100 µM | MDA-N > 100 µM | NCI/ADR-RES > 100 µM | OVCAR-8 > 100 µM | NCI-H460 > 100 µM | OVCAR-5 > 100 µM | A549 70.5 µM | NCI-H23 > 100 µM | RPMI-8226 > 100 µM | DU-145 > 100 µM | MDA-MB-231 > 100 µM | SN12C > 100 µM | KM12 29.5 µM | BT-549 > 100 µM | ACHN > 100 µM | TK-10 > 100 µM | HOP-62 53 µM | T47D > 100 µM | U-251 > 100 µM | RXF 393 3.64 µM | M14 > 100 µM | HCC 2998 > 100 µM | UO-31 > 100 µM | Hs-578T > 100 µM | UACC-62 > 100 µM | SF-295 > 100 µM | OVCAR-3 12.4 µM | SK-MEL-28 > 100 µM | CAKI-1 > 100 µM | SNB-75 > 100 µM | COLO 205 > 100 µM | SR 48.2 µM | SNB-19 70.3 µM | UACC-257 66.8 µM | K562 > 100 µM | 786-0 > 100 µM | A498 > 100 µM | SK-OV-3 > 100 µM | HOP-92 > 100 µM | SK-MEL-2 34.1 µM

O=C1/C(=C/Cc2ccco2)N=C(c2ccccc2)N1c1nc2ccc(Sc3ccccc3)cc2[nH]1
30.5 µM: HCT-15
inactive: SF-539 28.5 µM | MCF7 14 µM | SK-MEL-5 15.9 µM | PC-3 22.9 µM | LOX IMVI 18.8 µM | OVCAR-4 24.2 µM | SW-620 34 µM | CCRF-CEM 19.3 µM | HT-29 25 µM | SF-268 18.9 µM | MOLT-4 16.3 µM | MDA-MB-435 5.52 µM | HCT-116 17.8 µM | HL-60 21.7 µM | EKVX 25.6 µM | MDA-N 6.12 µM | NCI/ADR-RES 23.6 µM | OVCAR-8 20.9 µM | NCI-H460 26.9 µM | OVCAR-5 25.9 µM | A549 29.8 µM | RPMI-8226 24.2 µM | DU-145 23.1 µM | MDA-MB-231 20.5 µM | SN12C 16.1 µM | KM12 16.7 µM | BT-549 20.3 µM | ACHN 19.4 µM | TK-10 35.4 µM | HOP-62 30.1 µM | T47D 32.1 µM | U-251 19.7 µM | RXF 393 15.1 µM | M14 19.7 µM | HCC 2998 16.9 µM | UO-31 19.2 µM | Hs-578T 18.9 µM | UACC-62 20.7 µM | IGROV-1 30.3 µM | SF-295 29.7 µM | OVCAR-3 21.9 µM | SK-MEL-28 28.2 µM | CAKI-1 25.4 µM | SNB-75 19.5 µM | COLO 205 18.2 µM | SR 13.6 µM | SNB-19 33.2 µM | UACC-257 17.7 µM | K562 28.1 µM | 786-0 18 µM | A498 8.36 µM | SK-OV-3 25.9 µM | HOP-92 18.7 µM | SK-MEL-2 16.1 µM

O=C1OI(C#Cc2ccccc2)c2ccccc21
inactive: SF-539 2.16 µM | MCF7 3.69 µM | SK-MEL-5 2.19 µM | PC-3 4.54 µM | LOX IMVI 2.74 µM | OVCAR-4 3.93 µM | SW-620 2.19 µM | HT-29 3.94 µM | NCI-H226 5.26 µM | SF-268 2.84 µM | MOLT-4 1.63 µM | MDA-MB-435 3.72 µM | HCT-116 2.24 µM | EKVX 2.76 µM | MDA-N 4.16 µM | NCI/ADR-RES 5.98 µM | OVCAR-8 4.39 µM | NCI-H460 3.18 µM | OVCAR-5 5.82 µM | A549 8.65 µM | NCI-H23 2.38 µM | RPMI-8226 1.57 µM | DU-145 7.18 µM | MDA-MB-231 6.1 µM | SN12C 4.16 µM | KM12 3.52 µM | BT-549 2.88 µM | ACHN 2.18 µM | TK-10 3.29 µM | HOP-62 6.41 µM | T47D 3.16 µM | U-251 2.62 µM | RXF 393 5.43 µM | M14 4.38 µM | HCC 2998 6.58 µM | UO-31 4.13 µM | Hs-578T 4.16 µM | Malme-3M 1.53 µM | UACC-62 5.04 µM | IGROV-1 2.14 µM | SF-295 13.5 µM | OVCAR-3 2.64 µM | SK-MEL-28 5.48 µM | CAKI-1 2.61 µM | SNB-75 3.89 µM | COLO 205 3.37 µM | SR 1.46 µM | SNB-19 7.29 µM | UACC-257 5.2 µM | K562 2.15 µM | 786-0 3.11 µM | A498 4.57 µM | SK-OV-3 12.2 µM | HOP-92 1.88 µM | SK-MEL-2 11.7 µM
active: CCRF-CEM 0.355 µM | HL-60 1.12 µM
3.18 µM: HCT-15

Cc1c2cccc-2c(N(C)C)cc2c1[nH]c1ccccc12
3.12 µM: HCT-15
active: HOP-92 0.561 µM
inactive: SF-539 2.11 µM | MCF7 5.31 µM | SK-MEL-5 5.64 µM | PC-3 1.42 µM | LOX IMVI 3.94 µM | SW-620 4.17 µM | CCRF-CEM 3.83 µM | HT-29 4.81 µM | NCI-H226 5.81 µM | SF-268 5.13 µM | MOLT-4 4.35 µM | MDA-MB-435 8.36 µM | HCT-116 3.33 µM | HL-60 2.35 µM | EKVX 1.96 µM | MDA-N 6.56 µM | NCI/ADR-RES 3.22 µM | OVCAR-8 3.21 µM | NCI-H460 9.16 µM | OVCAR-5 3.23 µM | A549 3.85 µM | NCI-H23 8.93 µM | RPMI-8226 2.07 µM | DU-145 14.6 µM | MDA-MB-231 10.1 µM | SN12C 6.67 µM | KM12 2.74 µM | BT-549 2.6 µM | ACHN 3.19 µM | TK-10 4.63 µM | HOP-62 2.71 µM | T47D 1.86 µM | U-251 1.93 µM | M14 5.32 µM | UO-31 2.53 µM | Hs-578T 3.57 µM | Malme-3M 3.3 µM | IGROV-1 1.89 µM | SF-295 10.4 µM | OVCAR-3 4.32 µM | SK-MEL-28 2.02 µM | CAKI-1 17.5 µM | COLO 205 1.65 µM | SR 1.58 µM | SNB-19 9.27 µM | UACC-257 13 µM | 786-0 2.97 µM | A498 21 µM | SK-OV-3 2.67 µM
